This is an account of results in patent US5010090A, “N-(butenyl substituted) azaheterocyclic carboxylic acids” (Novo Nordisk A/S., priority 1985, dated 1991).

Assay [1] concerns GABA uptake. The assay is described as follows: GABA-uptake inhibition in vitro, essentially as described by Fjalland, 3H-GABA as substrate. The format is biochemical. The note with it: two separate experiments, 3-5 concentrations, 3H-GABA substrate (25 mM [sic]). The protocol: GABA-uptake inhibition was measured essentially as described by Fjalland (Acta Pharmacol. et. Toxicol. (1978), 42, 73-76) using 25 mM of 3H-GABA as a substrate. The results obtained appears from Table 4, the obtained values being from two separate experiments using 3-5 different concentrations of test compound.

Assay [2] has as its system DMCM induced clonic convulsions. Briefly: Inhibition of DMCM induced convulsions in vivo. The note with it: Mus musculus, ip, 0.5 h; 50% inhibition of DMCM induced clonic convulsions; i.p. 30 min before 15 mg/kg DMCM i.p.; female NMRI mice. On the procedure:
Inhibition of DMCM induced convulsions was measured on female NMRI mice (20±2 g).
The test compounds were injected intraperitoneally 30 min. before an intraperitoneal injection of 15 mg/kg of DMCM.

Assay [3] concerns GABA uptake. The note with it: literature; cited from earlier work.

The IC50 is the midpoint of a concentration-inhibition curve. A lower IC50 goes with greater potency. For orientation: ED50 means the dose that gives a 50% effect, or the effect in half of the subjects. Read a high ED50 as weaker potency. For the compound `Cc1ccsc1C(=CCCN1CCC[C@@H](C(=O)O)C1)c1sccc1C` [Compound 6, R-N-(4,4-bis(3-methylthien-2-yl)but-3-enyl)-nipecotic acid], in the assay with GABA uptake [1], the IC50 amounted to 74 nM. Moreover, the 50% effective dose (ED50) in assay [2] stood at 1.2 mg/kg. Turning to `O=C(O)C1=CCCN(CCC=C(c2ccccc2)c2ccccc2)C1` [SK&F 100330A, N-(4,4-diphenyl-3-butenyl)guvacine], in the assay on GABA uptake [3], the “inhibition of GABA uptake” value is “active inhibitors of GABA uptake”. In the case of `O=C(O)C1CCCN(CCC=C(c2ccccc2)c2cccs2)C1` (stereo not shown) [Compound 9, N-(4-phenyl-4-(2-thienyl)-3-butenyl)nipecotic acid, reference compound], the “inhibition of GABA uptake” value in the assay on GABA uptake [3] was “active inhibitors of GABA uptake”. Also, inhibition with GABA uptake [1] was half-maximal at 465 nM (IC50). `Cc1ccsc1C(=CCCN1CCCC(C(=O)O)C1)c1sccc1C` (stereo not shown) [Compound 5, N-(4,4-Bis(3-methylthien-2-yl)but-3-enyl)nipecotic acid] yielded an IC50 in the assay with GABA uptake [1] of 87 nM. For the compound `Cc1ccsc1C(=CCCN1CCC(CC(=O)O)C1)c1sccc1C` (stereo not drawn) [Compound 7, N-(4,4-Bis(3-methylthien-2-yl)but-3-enyl)-β-homoproline], the IC50 in the assay on GABA uptake [1] came out at 69 nM. Compound `Cc1ccsc1C(=CCCN1CCCC(C(=O)O)C1)c1cccs1` (stereo not shown) [Compound 1, N-(4-(3-Methylthien-2-yl)-4-(thien-2-yl)but-3-enyl)nipecotic acid] showed an IC50 in the assay on GABA uptake [1] of 92 nM. Consider `Cc1ccsc1C(=CCCN1CCC(CC(=O)O)C1)c1cccs1` (stereo not shown) [Compound 4], for which the IC50 in the assay with GABA uptake [1] turned out to be 72 nM. In turn, `Cc1ccsc1C(=CCCN1CCC=C(C(=O)O)C1)c1cccs1` [Compound 3, N-(4-(3-Methylthien-2yl)-4-(thien-2-yl)but-3-enyl)guvacine] returned an IC50 in the assay with GABA uptake [1] of 134 nM. For `CCOC(=O)[C@@H]1CCCN(CCC=C(c2sccc2C)c2sccc2C)C1` [Example 23, R-N-(4,4-bis(3-methylthien-2-yl)but-3-enyl)-nipecotic acid ethyl ester], the ED50 in assay [2] was determined as 2.5 mg/kg.

As to `O=C(O)CC1CCN(CCC=C(c2ccccc2)c2ccccc2)C1` (stereo not drawn) [SK&F 100561, N-(4,4-diphenyl-3-butenyl)-β-homoproline], in the assay on GABA uptake [3], the “inhibition of GABA uptake” value is “active inhibitors of GABA uptake”.

As to `O=C(O)C1CCCN(CCC=C(c2ccccc2)c2ccccc2)C1` (stereo not shown) [Compound 10, N-(4,4-diphenyl-3-butenyl)nipecotic acid, reference compound], the “inhibition of GABA uptake” value with GABA uptake [3] is listed as “active inhibitors of GABA uptake”. In the assay on GABA uptake [1], this compound gave an IC50 of 353 nM.

Regarding `O=C(O)C1CCCN(CCC=C(c2sccc2Br)c2sccc2Br)C1` (stereo not shown) [Compound 8, N-(4,4-Bis(3-bromothien-2-yl)but-3-enyl)nipecotic acid], the IC50 in the assay on GABA uptake [1] stood at 96 nM. On to `Cn1cccc1C(=CCCN1CCCC(C(=O)O)C1)c1cccn1C` (stereo not shown) [Compound 2, N-(4,4-Bis(N-methylpyrrol-2-yl)but-3-enyl)nipecotic acid], for which inhibition in the assay with GABA uptake [1] was half-maximal at 52 nM (IC50).
